Assay results from patent US20250171438A1 (Agios Pharmaceuticals, Inc., priority 2022, published 2025).

The compounds below were run against T1, human PAH with the R408W mutation (Homo sapiens, UniProt P00439, R408W) (assay: Cell Based Phenylalanine Flux Assay). Conditions: A375 cells expressing human R408W PAH; 24 hrs compound incubation; 13C-Tyrosine by LC-MS; average where tested multiple times; read-out: AC50.
T1 construct: expressed in transfected cells
T1 sequence (P00439 1-452 R408W): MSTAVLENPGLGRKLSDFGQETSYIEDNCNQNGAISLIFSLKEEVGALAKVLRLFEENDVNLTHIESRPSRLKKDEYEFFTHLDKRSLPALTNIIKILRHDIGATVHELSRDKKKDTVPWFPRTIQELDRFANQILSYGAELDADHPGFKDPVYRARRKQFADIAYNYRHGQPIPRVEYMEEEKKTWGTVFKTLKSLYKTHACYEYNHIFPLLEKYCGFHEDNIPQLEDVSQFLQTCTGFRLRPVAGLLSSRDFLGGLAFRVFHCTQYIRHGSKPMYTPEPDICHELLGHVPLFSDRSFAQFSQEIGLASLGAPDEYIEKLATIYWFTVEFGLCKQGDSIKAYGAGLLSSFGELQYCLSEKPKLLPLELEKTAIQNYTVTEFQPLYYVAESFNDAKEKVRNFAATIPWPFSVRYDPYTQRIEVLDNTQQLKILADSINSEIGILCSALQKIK

| SMILES | AC50 [nM] |
| --- | --- |
| Cn1nc(Cl)nc1C(=O)N1CCc2[nH]cnc2[C@@H]1c1nc2ccccc2s1 [Example 1938, (R)-(4-(benzo[d]thiazol-2-yl)-6,7-dihydro-1H-imidazo[4,5-c]pyridin-5(4H)-yl)(3-chloro-1-methyl-1H-1,2,4-triazol-5-yl)methanone] | 1000 to 5000 |
| Cc1ncoc1C(=O)N1C[C@@H](C)c2[nH]cnc2[C@@H]1c1nc2ccccc2s1 [Example 1548, ((4R,7R)-4-(benzo[d]thiazol-2-yl)-7-methyl-6,7-dihydro-1H-imidazo[4,5-c]pyridin-5(4H)-yl)(4-methyloxazol-5-yl)methanone] | > 5000 |
| O=C(c1cnn2ccc(Br)cc12)N1CCc2[nH]cnc2[C@H]1c1nc2ccccc2s1 [Example 1047] | < 500 |
| O=C(C1CC1(F)F)N1CCc2[nH]cnc2[C@@H]1c1nc2ccccc2s1 (single isomer, unassigned) [Example 1285] | > 5000 |
| O=C(N1CCc2[nH]cnc2[C@H]1c1nc2c(F)cccc2s1)C(F)(F)C1(O)CCC1 [Example 1655, (S)-2,2-difluoro-1-(4-(4-fluorobenzo[d]thiazol-2-yl)-6,7-dihydro-1H-imidazo[4,5-c]pyridin-5(4H)-yl)-2-(1-hydroxycyclobutyl)ethanone] | 500 to 1000 |
| Cc1cccc2sc([C@H]3c4nc[nH]c4CCN3C(=O)c3ocnc3C(F)(F)F)nc12 [Example 2010, (R)-(4-(4-methylbenzo[d]thiazol-2-yl)-6,7-dihydro-1H-imidazo[4,5-c]pyridin-5(4H)-yl)(4-(trifluoromethyl)oxazol-5-yl)methanone] | 500 to 1000 |
| O=C(N1CCc2[nH]cnc2[C@H]1c1nc2ccccc2s1)C(F)(F)C1CC1 [Example 1253] | 500 to 1000 |
| Cn1nc(C(C)(C)C#N)nc1C(=O)N1CCc2[nH]cnc2[C@H]1c1nc2c(F)cccc2s1 [Example 2047, (S)-2-(5-(4-(4-fluorobenzo[d]thiazol-2-yl)-4,5,6,7-tetrahydro-1H-imidazo[4,5-c]pyridine-5-carbonyl)-1-methyl-1H-1,2,4-triazol-3-yl)-2-methylpropanenitrile] | 500 to 1000 |
| O=C(c1ocnc1-c1ccccc1)N1CCc2[nH]cnc2[C@H]1c1nc2ccccc2s1 [Example 1442] | 500 to 1000 |
| O=C(CCc1ncc(Cl)s1)N1CCc2[nH]cnc2[C@@H]1c1nc2ccccc2s1 [Example 1026, (R)-1-(4-(benzo[d]thiazol-2-yl)-6,7-dihydro-1H-imidazo[4,5-c]pyridin-5(4H)-yl)-3-(5-chlorothiazol-2-yl)propan-1-one] | 1000 to 5000 |
| O=C(c1cncs1)N1CCc2[nH]cnc2[C@H]1c1nc2ccccc2[nH]1 [Example 914, (S)-(4-(1H-benzo[d]imidazol-2-yl)-6,7-dihydro-1H-imidazo[4,5-c]pyridin-5(4H)-yl)(thiazol-5-yl)methanone] | 500 to 1000 |
| Cc1cccc2nc([C@H]3c4nc[nH]c4CCN3C(=O)c3cnco3)sc12 [Example 2180, (R)-(4-(7-methylbenzo[d]thiazol-2-yl)-6,7-dihydro-1H-imidazo[4,5-c]pyridin-5(4H)-yl)(oxazol-5-yl)methanone] | > 5000 |
| O=C(c1oc(C2(O)CCC2)nc1C(F)(F)F)N1CCc2[nH]cnc2[C@H]1c1nc2ccccc2s1 [Example 1565] | < 500 |
| CC(C)(C)OC(=O)N1CC(c2nnc(C(=O)N3CCc4[nH]cnc4[C@@H]3c3nc4ccccc4s3)o2)C1 [Example 1894, (R)-tert-butyl 3-(5-(4-(benzo[d]thiazol-2-yl)-4,5,6,7-tetrahydro-1H-imidazo[4,5-c]pyridine-5-carbonyl)-1,3,4-oxadiazol-2-yl)azetidine-1-carboxylate] | 1000 to 5000 |
| O=C(c1cn(CC(F)F)nc1Cl)N1CCc2[nH]cnc2[C@@H]1c1nc2c(F)cccc2s1 [Example 1982, (R)-(3-chloro-1-(2,2-difluoroethyl)-1H-pyrazol-4-yl)(4-(4-fluorobenzo[d]thiazol-2-yl)-6,7-dihydro-1H-imidazo[4,5-c]pyridin-5(4H)-yl)methanone] | 1000 to 5000 |
| O=C(C1CC1(F)F)N1CCc2[nH]cnc2[C@H]1c1nc2ccccc2s1 (single isomer, unassigned) [Example 1287] | > 5000 |
| CC(C)(F)c1ncc(C(=O)N2CCc3[nH]cnc3[C@H]2c2nc3ccccc3s2)s1 [Example 1463] | < 500 |
| O=C(c1nnc(-c2cc(C(F)(F)F)ccn2)o1)N1CCc2[nH]cnc2[C@H]1c1nc2c(F)cccc2s1 [Example 1906, (S)-(4-(4-fluorobenzo[d]thiazol-2-yl)-6,7-dihydro-1H-imidazo[4,5-c]pyridin-5(4H)-yl)(5-(4-(trifluoromethyl)pyridin-2-yl)-1,3,4-oxadiazol-2-yl)methanone] | < 500 |
| O=C(c1nnc(C2CC2)o1)N1CCc2[nH]cnc2[C@H]1c1nc2ccccc2s1 [Example 1363] | < 500 |
| CN(C)CCc1nc(C(F)(F)F)c(C(=O)N2CCc3[nH]cnc3[C@@H]2c2nc3c(F)cccc3s2)o1 [Example 1676, (R)-(2-(2-(dimethylamino)ethyl)-4-(trifluoromethyl)oxazol-5-yl)(4-(4-fluorobenzo[d]thiazol-2-yl)-6,7-dihydro-1H-imidazo[4,5-c]pyridin-5(4H)-yl)methanone] | < 500 |
| CC(C)(C)c1ncc(C(=O)N2CCc3[nH]cnc3[C@H]2c2nc3c(F)cccc3s2)s1 [Example 1425] | < 500 |
| CC(C)(O)c1nc(C(F)(F)F)c(C(=O)N2CC3(CC3)c3[nH]cnc3[C@H]2c2nc3ccccc3s2)o1 [Example 1679, (S)-(4′-(benzo[d]thiazol-2-yl)spiro[cyclopropane-1,7′-imidazo[4,5-c]pyridin]-5′(1′H,4′H,6′H)-yl)(2-(2-hydroxypropan-2-yl)-4-(trifluoromethyl)oxazol-5-yl)methanone] | 500 to 1000 |
| CN(C)c1nnc(C(=O)N2CCc3[nH]cnc3[C@H]2c2nc3ccccc3s2)o1 [Example 1609] | < 500 |
| CCn1cnnc1C(=O)N1CCc2[nH]cnc2[C@@H]1c1nc2ccccc2s1 [Example 2077, (R)-(4-(benzo[d]thiazol-2-yl)-6,7-dihydro-1H-imidazo[4,5-c]pyridin-5(4H)-yl)(4-ethyl-4H-1,2,4-triazol-3-yl)methanone] | > 5000 |
| CC(C)(O)c1nc(CF)c(C(=O)N2CCc3[nH]cnc3[C@H]2c2nc3c(F)cccc3s2)o1 [Example 2065, (S)-(4-(4-fluorobenzo[d]thiazol-2-yl)-6,7-dihydro-1H-imidazo[4,5-c]pyridin-5(4H)-yl)(4-(fluoromethyl)-2-(2-hydroxypropan-2-yl)oxazol-5-yl)methanone] | < 500 |
| O=C(c1ccnn1C(F)(F)F)N1CCc2[nH]cnc2[C@@H]1c1nc2ccccc2s1 [Example 2098, (R)-(4-(benzo[d]thiazol-2-yl)-6,7-dihydro-1H-imidazo[4,5-c]pyridin-5(4H)-yl)(1-(trifluoromethyl)-1H-pyrazol-5-yl)methanone] | 500 to 1000 |

Same assay, conditions: A375 cells expressing human R408W PAH; 24 hrs with compound; 13C-Tyrosine by LC-MS; average where tested multiple times; read-out: AC50

| SMILES | AC50 [nM] |
| --- | --- |
| O=C(CCc1nccs1)N1CCc2[nH]cnc2C1c1nc2ccc(Cl)cc2s1 (stereo not shown) | 1000 to 5000 |
| O=C(c1cnn2cccc(F)c12)N1CCc2[nH]cnc2[C@H]1c1nc2ccccc2[nH]1 [(S)-(4-(1H-benzo[d]imidazol-2-yl)-1,4,6,7-tetrahydro-5H-imidazo[4,5-c]pyridin-5-yl)(4-fluoropyrazolo[1,5-a]pyridin-3-yl)methanone] | 1000 to 5000 |
| CC1CN(C(=O)c2cnc(N3CCOCC3)o2)C(c2nc3ccccc3s2)c2nc[nH]c21 (stereo not shown) | > 5000 |
| Cn1nc(CC#N)nc1C(=O)N1CCc2[nH]cnc2C1c1nc2ccccc2s1 (stereo not shown) | > 5000 |
| O=C(c1oc(-c2ccccc2)nc1-c1ccccc1)N1CCc2[nH]cnc2C1c1nc2ccccc2s1 (stereo not shown) | > 5000 |
| CC(C)(O)Cn1ncc(C(=O)N2CCc3[nH]cnc3C2c2nc3c(F)cccc3s2)c1C(F)F (stereo not shown) | > 5000 |
| O=C(Cc1ccccn1)N1CCc2[nH]cnc2C1c1nc2ccccc2s1 (stereo not shown) | > 5000 |
| O=C(c1cc(C(F)F)n[nH]1)N1CCc2[nH]cnc2C1c1nc2c(F)cccc2s1 (stereo not shown) | 1000 to 5000 |
| O=C(c1ccon1)N1CCc2[nH]cnc2[C@H]1c1nc2ccccc2[nH]1 [(S)-(4-(1H-benzo[d]imidazol-2-yl)-1,4,6,7-tetrahydro-5H-imidazo[4,5-c]pyridin-5-yl)(isoxazol-3-yl)methanone] | 1000 to 5000 |
| O=C(Cc1nc(C(F)(F)F)cs1)N1CCc2[nH]cnc2C1c1nc2ccc(Br)cc2[nH]1 (stereo not shown) | 1000 to 5000 |
| Cc1nc(C(C)(C)O)oc1C(=O)N1CCCc2[nH]cnc2C1c1nc2ccccc2s1 (stereo not shown) | > 5000 |
| COc1cccc(C=CC(=O)N2CCc3[nH]cnc3C2c2nc3ccccc3[nH]2)c1 (stereo not shown) | 1000 to 5000 |
| Clc1ccc2nc(C3c4nc[nH]c4CCN3Cc3nccs3)[nH]c2c1 (stereo not shown) | > 5000 |
| Cc1ccc2c(C(=O)N3CCc4[nH]cnc4C3c3nc4ccc(F)cc4s3)cnn2c1 (stereo not shown) | > 5000 |
| O=C(c1nc2ccc(F)cc2s1)N1CCc2[nH]cnc2[C@H]1c1nc2ccccc2[nH]1 [(S)-(4-(1H-benzo[d]imidazol-2-yl)-6,7-dihydro-1H-imidazo[4,5-c]pyridin-5(4H)-yl)(6-fluorobenzo[d]thiazol-2-yl)methanone] | 1000 to 5000 |
| Cc1nc(-c2ccccn2)oc1C(=O)N1CCCc2[nH]cnc2C1c1nc2ccccc2s1 (stereo not shown) | 1000 to 5000 |
| O=C(c1nnc(CCNC2CC2)o1)N1CCc2[nH]cnc2C1c1nc2ccccc2s1 (stereo not shown) | > 5000 |
| CC(=O)N1CCc2[nH]cnc2C1c1nc2ccccc2s1 (stereo not shown) | > 5000 |
| CC1CN(C(=O)c2cnc(CN(C)C)o2)C(c2nc3ccccc3s2)c2nc[nH]c21 (stereo not shown) | > 5000 |
| Cn1ncc(C(=O)N2CCc3[nH]cnc3C2c2nc3c(C(F)(F)F)cccc3s2)c1Cl (stereo not shown) | 1000 to 5000 |
